{
  "source": "patent US12349708B2",
  "about": "“Use and methods of 1,3-propanediol to improve taste and/or off-taste qualities” (Primient Covation LLC, priority 2019, dated 2025)",
  "test_system": "experienced and trained panelist",
  "assay": "Sensorial description of energy drinks and additive solutions with propylene glycol or biologically-produced 1,3-propanediol (multi-sip-and-swallow taste method);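 further: propylene glycol or 1,3-propanediol added at 0.01, 0.1 or 1.0%, tasted by multi-sip-and-swallow in duplicate, compared with matching controls lacking either additive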",
  "details": "for Sensorial Description: RT; for increase of sweetness equivalent: with prior DW sipping; for concentration yielding the most consistent reduction in unpleasant taste/masking off-tastes: in vivo; for taste quality of 5-hour ENERGY shots and Bang energy drink: included in 5-hour ENERGY shots and Bang energy drink; for overall tasting quality vs propylene glycol: three additive solutions; for tasting qualities vs propylene glycol: two additive malic acid and sucralose solutions",
  "key": {"[1]": {"details": "PG samples tasted before PDO samples"}},
  "note": "Entries after “also recorded” stand apart in the source; their conditions may differ.",
  "data": [
    {"smiles": "OCCCO", "note": "[PDO, 1,3-propanediol]", "values": [
      {"measurement": "Sensorial Description", "setting": "0.01% PG or PDO in 79 ppm sucralose (5% SE) in distilled water", "value": "Same as 0.01% PG results."},
      {"measurement": "Sensorial Description", "setting": "0.01% PG or PDO in 2,000 ppm sucralose in distilled water", "value": "(small sip): Similar results as 0.01% PG. Direct"},
      {"measurement": "Sensorial Description", "setting": "0.01% PG or PDO in 3,338 ppm caffeine in distilled water (caffeine shot)", "value": "(small sip): similar to Control #65."},
      {"measurement": "Sensorial Description", "setting": "0.01% PG or PDO in 10,500 ppm malic acid and 2,000 ppm sucralose in distilled water", "value": "Little to no sweetness and sourness, similar"},
      {"measurement": "Sensorial Description", "setting": "0.01% PG or PDO in 10,500 ppm malic acid, 2,000 ppm sucralose, 3,338 ppm caffeine in distilled water", "value": "Significantly less sweet intensity, less and different"},
      {"measurement": "Sensorial Description", "setting": "0.01% PG or PDO in B vitamins at 5-hour Energy shot concentrations in distilled water", "value": "Slightly different from Control (upfront smooth-like)"},
      {"measurement": "Sensorial Description", "setting": "0.01% PG or PDO in Bang energy drink", "value": "Still slow onset sourness, less sweetness (more"},
      {"measurement": "Sensorial Description", "setting": "0.01% PG or PDO in Berry flavor in distilled water", "value": "No dry taste effect, slight less flavor."},
      {"measurement": "Sensorial Description", "setting": "0.01% PG or PDO in Monster Energy Zero Ultra", "value": "Significantly less off-taste, still strong sweetness and"},
      {"measurement": "Sensorial Description", "setting": "0.01% PG or PDO in Monster Energy drink", "value": "Note: Loss of carbonation. No carbonic acid off-"},
      {"measurement": "Sensorial Description", "setting": "0.01% PG or PDO in NOS High Performance Energy Drink", "value": "Less Sweet, smoother, no off-taste, significant less"},
      {"measurement": "Sensorial Description", "setting": "0.01% PG or PDO in Orange 5-hour ENERGY shot (5HE Orange)", "value": "Not significantly less flavor, tasted better than"},
      {"measurement": "Sensorial Description", "setting": "0.01% PG or PDO in Red Bull Energy Drink", "value": "Better taste overall and less off taste than 0.01% PG,"},
      {"measurement": "Sensorial Description", "setting": "0.01% PG or PDO in Red Bull Sugar Free", "value": "Much better overall tasting quality, significantly less"},
      {"measurement": "Sensorial Description", "setting": "0.01% PG or PDO in Rockstar Original energy drink", "value": "Slight off-flavor, significantly less sourness, still"},
      {"measurement": "increase of sweetness equivalent", "setting": "0.01% in 2,000 ppm sucralose", "value": "~45", "unit": "% more SE."},
      {"measurement": "Sensorial Description", "setting": "0.1% PG or PDO in 238 ppm sucralose (10% SE) in distilled water", "value": "Still slightly more sweetness, thinner but still ~9-"},
      {"measurement": "Sensorial Description", "setting": "0.1% PG or PDO in 338 ppm caffeine in distilled water (caffeine drink)", "value": "Stronger bitterness intensity to medium level."},
      {"measurement": "Sensorial Description", "setting": "0.1% PG or PDO in 2,000 ppm sucralose in distilled water", "value": "(small sip): Significantly improved sugar-like tasting"},
      {"measurement": "Sensorial Description", "setting": "0.1% PG or PDO in 3,338 ppm caffeine in distilled water (caffeine shot)", "value": "(small sip): similar to Control #65."},
      {"measurement": "Sensorial Description", "setting": "0.1% PG or PDO in Bang energy drink", "value": "Significantly less sourness and sweetness, smoother,"},
      {"measurement": "Sensorial Description", "setting": "0.1% PG or PDO in Berry 5-hour ENERGY shot (5HE Berry)", "value": "Significantly better tasting quality than 0.1% PG,"},
      {"measurement": "Sensorial Description", "setting": "0.1% PG or PDO in Berry flavor in distilled water", "value": "Less dry than 0.01% PDO, slight less flavor."},
      {"measurement": "Sensorial Description", "setting": "0.1% PG or PDO in Monster Energy Zero Ultra", "value": "More suitable tasting quality (less than 1% but more"},
      {"measurement": "Sensorial Description", "setting": "0.1% PG or PDO in Monster Energy drink", "value": "Note: Loss of carbonation. Similar to 0.01% PDO,"},
      {"measurement": "Sensorial Description", "setting": "0.1% PG or PDO in Red Bull Energy Drink", "value": "Note: Significant loss of carbonation. Still slight-"},
      {"measurement": "Sensorial Description", "setting": "0.1% PG or PDO in Red Bull Sugar Free", "value": "Flatter than 0.01% PDO, low-med flavor, low-med"},
      {"measurement": "increase of sweetness equivalent", "setting": "0.1% in 2,000 ppm sucralose", "value": "~45", "unit": "% more SE."},
      {"measurement": "taste effect at 1% (10,000 ppm)", "setting": "1% / 1.0% (10,000 ppm) in the compositions studied, listed as biologically-produced 1,3-propanediol", "value": "sometimes imparted a smoke and/or off-flavor; also recorded: yielded no further improvement in taste perception"},
      {"measurement": "Sensorial Description", "setting": "1.0% PG or PDO in 79 ppm sucralose (5% SE) in distilled water", "value": "Significant off-flavor note, chemical-like note,"},
      {"measurement": "Sensorial Description", "setting": "1.0% PG or PDO in 238 ppm sucralose (10% SE) in distilled water", "value": "Off-flavor, thinner-like or chemical-like note,"},
      {"measurement": "Sensorial Description", "setting": "1.0% PG or PDO in 338 ppm caffeine in distilled water (caffeine drink)", "value": "Off-flavor taste, delayed onset of bitterness."},
      {"measurement": "Sensorial Description", "setting": "1.0% PG or PDO in 2,000 ppm sucralose in distilled water", "value": "(small sip): off-flavor chemical-like note (plastic-"},
      {"measurement": "Sensorial Description", "setting": "1.0% PG or PDO in 3,338 ppm caffeine in distilled water (caffeine shot)", "value": "(small sip): similar to Control #65, slightly"},
      {"measurement": "Sensorial Description", "setting": "1.0% PG or PDO in 10,500 ppm malic acid and 2,000 ppm sucralose in distilled water", "value": "Weak off-flavor across the taste, similar qualities"},
      {"measurement": "Sensorial Description", "setting": "1.0% PG or PDO in 10,500 ppm malic acid in distilled water", "value": "No off-flavor for sure, however possible Invisible-"},
      {"measurement": "Sensorial Description", "setting": "1.0% PG or PDO in 10,500 ppm malic acid in distilled water, listed as biologically-produced 1,3-propanediol", "value": "did not present any expected off-flavor"},
      {"measurement": "Sensorial Description", "setting": "1.0% PG or PDO in 10,500 ppm malic acid, 2,000 ppm sucralose, 3,338 ppm caffeine in distilled water", "value": "Very weak off-flavor note, thinner sourness, less"},
      {"measurement": "Sensorial Description", "setting": "1.0% PG or PDO in B vitamins at 5-hour Energy shot concentrations in distilled water", "value": "Slight-medium off-flavor note,"},
      {"measurement": "Sensorial Description", "setting": "1.0% PG or PDO in Bang energy drink", "value": "Slight and low off-flavor at middle tasting time,"},
      {"measurement": "Sensorial Description", "setting": "1.0% PG or PDO in Berry flavor in distilled water", "value": "Moderate chemical-like off-flavor at later"},
      {"measurement": "Sensorial Description", "setting": "1.0% PG or PDO in Monster Energy Zero Ultra", "value": "Smoother, medium off flavor at middle tasting"},
      {"measurement": "Sensorial Description", "setting": "1.0% PG or PDO in Monster Energy drink", "value": "Note: Little carbonation. Significant undescribed"},
      {"measurement": "Sensorial Description", "setting": "1.0% PG or PDO in NOS High Performance Energy Drink", "value": "Off-flavor in middle taste, no or low sourness, not"},
      {"measurement": "Sensorial Description", "setting": "1.0% PG or PDO in Orange 5-hour ENERGY shot (5HE Orange)", "value": "Slight or faint off-flavor in background (non-"},
      {"measurement": "Sensorial Description", "setting": "1.0% PG or PDO in Red Bull Energy Drink", "value": "Note: significantly less or no carbonation. Significant"},
      {"measurement": "reduction in unpleasant taste or masking of off-taste", "setting": "2,000 ppm, 238 ppm, or 70 ppm sucralose in distilled water", "value": "No reduction in unpleasant taste, or masking of off-taste"},
      {"measurement": "reduction of unpleasant taste / masking of bitterness", "setting": "3,382 ppm or 338 ppm caffeine in distilled water", "value": "did not reduce the unpleasant taste, or mask the bitterness"},
      {"measurement": "maximum useful concentration", "setting": "across a broad range of food, beverage, and confection compositions", "value": 0.5, "unit": "%"},
      {"measurement": "taste modulation of B vitamins", "setting": "aqueous B vitamins at concentrations comparable to 5-hour ENERGY shots", "value": "did not positively modulate"},
      {"measurement": "modulation of berry flavor", "setting": "berry flavor in distilled water", "value": "Neither biologically-produced 1,3-propanediol, nor propylene glycol modulated the flavor"},
      {"measurement": "concentration yielding the most consistent reduction in unpleasant taste/masking off-tastes", "setting": "listed as bioPDO", "value": "ca. 0.1%"},
      {"measurement": "concentration yielding the most consistent reduction in unpleasant taste/masking off-tastes", "setting": "listed as biologically-produced 1,3-propane diol", "value": "about 0.1%"},
      {"measurement": "taste quality of 5-hour ENERGY shots and Bang energy drink", "setting": "listed as Biologically-produced 1,3-propanediol", "value": "improved the taste quality"},
      {"measurement": "taste quality of 5-hour ENERGY shots and Bang energy drink", "setting": "listed as biologically-produced 1,3-propanediol", "value": "positive taste modulation effect of PDO"},
      {"measurement": "taste modulation or sour masking", "setting": "malic acid at 10,500 ppm in distilled water", "value": "no positive taste modulation or sour masking effect"},
      {"measurement": "taste modulation of three additive solution", "setting": "malic acid, sucralose and caffeine at 5-hour ENERGY concentrations in distilled water, compared to solution with propylene glycol", "value": "positive taste modulation, or a reduction of unpleasant tastes"},
      {"measurement": "taste modulation of single additive solutions", "setting": "separate caffeine, malic acid, and sucralose solutions at mega-dose levels, listed as biologically-produced 1,3-propanediol", "value": "did not positively modulate the taste or mask the bitter, off, or sour tastes; also recorded: neither propylene glycol, nor biologically-produced 1,3-propanediol modulated the taste"},
      {"measurement": "taste modulation of two additive solutions", "setting": "solutions containing a blend of two taste additives", "value": "most positive taste modulation effect"},
      {"measurement": "overall tasting quality vs propylene glycol", "setting": "PDO samples tasted before PG samples, similar levels", "value": "better overall tasting quality"},
      {"measurement": "overall tasting quality vs propylene glycol", "setting": "[1]", "value": "no tasting quality differences"},
      {"measurement": "tasting qualities vs propylene glycol", "setting": "[1]", "value": "tasted marginally better than the propylene glycol-containing samples"},
      {"measurement": "tasting qualities vs propylene glycol", "setting": "direct comparison of PDO to PG", "value": "better tasting qualities than those with propylene glycol"}
    ]}
  ]
}
